Test results published in paper PMC7321108, “1-Hydroxyanthraquinones Containing Aryl Substituents as Potent and Selective Anticancer Agents” (Molecules, 2020).
Read-outs that look alike come from different tables or passages of the source.

Columns and labels:
[1] = test system: U-87MG glioblastoma cells; test: MTT cytotoxicity assay, U-87MG; format: cell-based; details: Homo sapiens, 72 h incubation, mean ± SEM of three experiments, read-out: Cytotoxicity (GI50) against U-87MG
Protocol: (§1) The cytotoxicity of the synthesized series of 4-substituted 5, 13–17, 22, 23, 2-substituted 25–30 and 2,4-disubstituted 1-hydroxy-9,10-anthraquinones 33–38, 40–45 was evaluated against a panel of seven different human cancer cell lines (glioblastoma cancer cells, human prostate cancer cells, T-cellular human leucosis, breast cancer cells) and also a normal cell line of hTERT-immortalized lung fibroblasts, using conventional MTT assay. Doxorubicin (DOX) is clinically used to treat cancer as drug in world and have a very wide antitumor spectrum. That we use them as positive control compounds. The cytotoxicity was determined by measuring the concentration inhibiting human tumor cell viability by 50% (GI50).
(§2) The human cancer cells of the glioblastoma (U-87MG, SNB-19, T98G), prostate cancer cell line (LNCAP, DU-145), the cells of T-cellular human leucosis (MT-4) and human breast cancer cells (MDA-MB-231) were used in this study. The cells were cultured in the RPMI-1640 medium that contained 10% embryonic calf serum, L-glutamine (2 mmol/L), gentamicin ([…]) and lincomycin (30 mkg/mL) in a CO2 incubator at 37 °C. The tested compounds were dissolved in DMSO and added to the cellular culture at the required concentrations. Three wells were used for each concentration. The cells which were incubated without the compounds were used as a control. Cells were placed on 96-well microliter plates and cultivated at 37 °C in 5% CO2/95% air for 72 h. The cell viability was assessed through an MTT [3-(4,5-dimethylthiazol-2-yl)-[…]-2H-tetrazolium bromide] conversion assay. A total of 1% MTT was added to each well. Four hours later, DMSO was added and mixed for 15 min. Optical density (D) of the samples was measured on a BioRad 680 multi-well spectrophotometer (USA) at the wavelength of 450 nm. The 50% cytotoxic dose GI50) of each compound (i.e., the compound concentration that causes the death of 50% of cells in a culture, or decreases the optical density twice as compared to the control wells) was calculated from the data obtained. Statistical processing of the results was performed using the Microsoft Excel-2007, […] 6.0 and GraphPad Prism 5.0 programs. The results are given as an average value ± a deviation from the average (mean ± standard error of the mean (SEM)). Reliability of differences (p) was estimated using the Student t test. The differences with p < 0.05 were considered as reliable. The experimental results are given as the data average values obtained from three independently conducted experiments.

[2] = test system: MDA-MB-231 breast cancer cells; test: MTT cytotoxicity assay, MDA-MB-231; format: cell-based; details: Homo sapiens, 72 h incubation, mean ± SEM of three experiments, read-out: Cytotoxicity (GI50) against MDA-MB-231
Protocol: as §1, §2

[3] = MTT cytotoxicity assay, normal hTERT-immortalized lung fibroblasts; format: cell-based; details: human, hTERT-immortalized lung fibroblasts (normal cell line), 72 h incubation, mean ± SEM of three experiments, read-out: Cytotoxicity (GI50) against hTERT Lung Fibroblasts
Protocol: as §1, §2

T98G glioblastoma cells = test: MTT cytotoxicity assay, T98G; format: cell-based; details: Homo sapiens, 72 h incubation, mean ± SEM of three experiments, read-out: Cytotoxicity (GI50) against T98G
Protocol: as §1, §2

pUC19 DNA plasmid = test: Gel retardation (electrophoretic mobility shift) assay; format: binding; details: 0.5 µg pUC19 plasmid, 0.025 µM test compound, room temperature 1 h, agarose gel 60 V 4 h
Protocol: The interaction of compounds 13, 15, 16, 23, 25 27, 28, 35, 40 and 44 with DNA was experimentally confirmed by study of the electrophoretic mobility. For this the gel retardation assay was performed. Doxorubicin in different concentration was used as a positive control. In order to avoid destruction of the possible complex of DNA with compounds, the electrophoresis was performed at low voltage. The results are presented at Figure 3.
To study the interaction between test compounds and DNA the electrophoretic mobility shift assay was performed. 0.5 µg of pUC19 plasmid was incubated with 0.025 µM of test compounds at room temperature for 1 h. After that the electrophoresis was performed in agarose gel (1/2%) in TBE buffer (60 V, 4 h). For visualization the gel was staining with ethidium bromide and analyzed with Bio-Rad gel documentation system.

[4] = test system: DU-145 prostate cancer cells; test: MTT cytotoxicity assay, DU-145; format: cell-based, human; details: Homo sapiens, DU-145, 72 h, 72 h incubation, mean ± SEM of three experiments, read-out: Cytotoxicity (GI50) against DU-145
Protocol: as §1, §2

[5] = test system: MT-4 cells of T-cellular human leucosis; test: MTT cytotoxicity assay, MT-4; format: cell-based; details: MT4, 72 h incubation, mean ± SEM of three experiments, read-out: Cytotoxicity (GI50) against MT-4
Protocol: as §1, §2

[6] = test system: SNB-19 glioblastoma cells; test: MTT cytotoxicity assay, SNB-19; format: cell-based; details: Homo sapiens, 72 h incubation, mean ± SEM of three experiments, read-out: Cytotoxicity (GI50) against SNB-19
Protocol: as §1, §2

[7] = test system: LNCAP prostate cancer cells; test: MTT cytotoxicity assay, LNCAP; format: cell-based, human; details: 72 h incubation, mean ± SEM of three experiments, read-out: Cytotoxicity (GI50) against LNCAP
Protocol: as §1, §2

SMILES | GI50 [1] [µM] | GI50 [2] [µM] | GI50 at 72 h [3] [µM] | GI50 (T98G glioblastoma cells) [µM] | Retardation of plasmid DNA (electrophoretic mobility) (pUC19 DNA plasmid) | GI50 [4] [µM] | melting point | GI50 [5] [µM] | GI50 [6] [µM] | GI50 ([7]; Homo sapiens, LNCaP, 72 h) [µM] | GI50 [7] [µM]
COc1ccc(-c2ccc(O)c3c2C(=O)c2ccccc2C3=O)cc1 [Compound 15, 1-Hydroxy-4-(4-methoxyphenyl)anthracene-9,10-dione] | 45.4 ± 1.87 | 6.8 ± 0.58 | 42 ± 2.04 | 11.6 ± 0.78 | cause a retardation of plasmid DNA | 6.5 ± 0.48 | 209.2 to 209.4 °C | 32.1 ± 1.54 | 9.6 ± 1.04 | 28.5 ± 0.96 | –
COc1ccc(-c2ccc3c(c2O)C(=O)c2ccccc2C3=O)cc1 [Compound 27, 1-Hydroxy-2-(4-methoxyphenyl)anthracene-9,10-dione] | 35.8 ± 2.17 | 23.2 ± 2.34 | 46.5 ± 1.21 | 21.6 ± 0.38 | cause a retardation of plasmid DNA | 19.1 ± 0.78 | 209.5 °C (dec.) | 38.6 ± 1.36 | 8.5 ± 0.32 | > 100 | –
COc1ccc(-c2cc(-c3ccc(OC)cc3)c3c(c2O)C(=O)c2ccccc2C3=O)cc1 [Compound 35, 1-Hydroxy-2,4-di-(4-methoxyphenyl)anthracene-9,10-dione] | 25.7 ± 3.14 | 7.6 ± 0.64 | 17.7 ± 0.96 | 9.8 ± 0.56 | cause a retardation of plasmid DNA | 5.9 ± 0.52 | 226.4 °C (dec.) | 20.2 ± 1.04 | 10.1 ± 1.08 | 26.7 ± 1.86 | –
O=C1c2ccccc2C(=O)c2c(O)c(-c3cc(F)cc(F)c3)cc(-c3cc(F)cc(F)c3)c21 [Compound 37, 2,4-Di-(3,5-difluorophenyl)-1-hydroxyanthracene-9,10-dione] | 8.7 ± 0.89 | 8.2 ± 0.96 | 10.5 ± 1.98 | 10.1 ± 0.78 | – | 5.8 ± 0.38 | 263.3 °C (dec.) | 56.6 ± 1.28 | 9.1 ± 0.68 | 6.2 to 7.2 | 6.2 ± 0.43
COc1cccc(-c2cc(-c3cccc(OC)c3OC)c3c(c2O)C(=O)c2ccccc2C3=O)c1OC [Compound 36, 2,4-Di-(2,3-dimethoxyphenyl)-1-hydroxyanthracene-9,10-dione] | 36.8 ± 1.42 | 22.6 ± 0.86 | 12.2 ± 2.08 | 15.5 ± 0.92 | – | 10.6 ± 1.12 | 192.9 °C (dec.) | 25.8 ± 0.94 | 37 ± 1.41 | 16.7 ± 1.86 | –
Cc1ccccc1-c1cc(-c2ccccc2C)c2c(c1O)C(=O)c1ccccc1C2=O [Compound 34, 1-Hydroxy-2,4-di-o-tolylanthracene-9,10-dione] | > 100 | > 100 | 72.2 ± 4.18 | > 100 | – | > 100 | 119.8 °C (dec.) | > 100 | > 100 | > 100 | –
O=C1c2ccccc2C(=O)c2c1ccc(-c1cc(C(F)(F)F)ccc1Cl)c2O [Compound 30, 2-(2-Chloro-5-(trifluoromethyl)phenyl)-1-hydroxyanthracene-9,10-dione] | 21.6 ± 1.42 | 39.1 ± 1.71 | 25.6 ± 5.24 | 39.2 ± 1.65 | – | 12.5 ± 3.17 | 188.5 °C (dec.) | 55.1 ± 3.24 | 16.8 ± 2.11 | > 100 | –
O=C1c2ccccc2C(=O)c2c(-c3ccco3)ccc(O)c21 [Compound 22, 1-(Furan-2-yl)-4-hydroxyanthracene-9,10-dione] | > 100 | > 100 | 52.2 ± 8.01 | > 100 | – | 24.2 ± 1.32 | 141.8 °C (dec.) | > 100 | > 100 | 21.1 ± 0.85 | –
O=C1c2ccccc2C(=O)c2c1ccc(-c1cc(F)cc(F)c1)c2O [Compound 29, 2-(3,5-Difluorophenyl)-1-hydroxyanthracene-9,10-dione] | 34.1 ± 2.18 | 35.2 ± 1.88 | 28.1 ± 2.12 | 29.6 ± 2.21 | – | 13.8 ± 1.05 | 264.3 °C (dec.) | 36.6 ± 1.68 | 15.3 ± 0.71 | 36.2 ± 2.05 | –
COc1cc(-c2cc(Br)c3c(c2O)C(=O)c2ccccc2C3=O)cc(OC)c1OC [Compound 42, 4-Bromo-1-hydroxy-2-(3,4,5-trimethoxyphenyl)anthracene-9,10-dione] | > 100 | 21.1 ± 3.28 | 18.2 ± 2.19 | 11.5 ± 1.34 | – | 23.9 ± 4.28 | 217.4 °C (dec.) | > 100 | 31.6 ± 2.16 | 71.8 ± 9.76 | –
Cc1ccccc1-c1ccc2c(c1O)C(=O)c1ccccc1C2=O [Compound 26, 1-Hydroxy-2-(o-tolyl)anthracene-9,10-dione] | > 100 | > 100 | 87.5 ± 9.11 | > 100 | – | 70.2 ± 1.47 | 148.5 °C (dec.) | 80 ± 5.21 | > 100 | 74 ± 3.74 | –
COc1ccc(-c2cc(Br)c(O)c3c2C(=O)c2ccccc2C3=O)cc1 [Compound 41, 2-Bromo-1-hydroxy-4-(4-methoxyphenyl)anthracene-9,10-dione] | 44.5 ± 1.56 | 15.8 ± 0.82 | 17.2 ± 0.62 | 29.7 ± 2.05 | – | > 100 | 241.3 °C (dec.) | 44.1 ± 3.23 | 14.1 ± 3.15 | 41.1 ± 5.15 | –
